The text below walks through data of ChEMBL document CHEMBL1201862, “PubChem BioAssay data set” (2004).

Each structure is given as a SMILES string.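 Exposure lasted 48 hours, with cells grown in 96-well plates and compounds tested at five concentrations. Here, GI50 denotes the concentration required for 50% inhibition of growth.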 Calls of active or inactive are those of the source. Cut-off read from the data, not from the text of the source: active = GI50 up to about 1.1 µM and inactive = higher.

Test systems include T47D; PC-3; MOLT-4; NCI-H522; 786-0; KM12; UACC-257; SF-268; A498; NCI-H226; SK-MEL-5; HCT-116; ACHN; OVCAR-3; Malme-3M; HT-29; OVCAR-4; SK-MEL-2; HCT-15; IGROV-1.
What all share (test): NCI-60 cell line screen, 48 h

`C/C(=N\Nc1ccc2ccccc2n1)c1ccccc1O`: the GI50 was 3.96 µM (inactive) with T47D; > 100 µM (inactive) with PC-3; 4.69 µM (inactive) with MOLT-4; > 100 µM (inactive) with NCI-H522; > 37.3 µM (inactive) in the assay on 786-0; > 100 µM (inactive) with KM12. For the same compound, the GI50 with UACC-257 was > 100 µM (inactive); in the assay with SF-268, 24.5 µM (inactive); in the assay on A498 it was > 100 µM (inactive); in the assay with NCI-H226, > 90.2 µM (inactive); with SK-MEL-5, > 100 µM (inactive); in the assay with HCT-116, > 100 µM (inactive). In addition, the GI50 in the assay on ACHN was > 100 µM (inactive); in the assay on OVCAR-3, 2.13 µM (inactive); in the assay on Malme-3M, > 100 µM (inactive); in the assay with HT-29, 8.15 µM (inactive); in the assay on OVCAR-4, > 100 µM (inactive); in the assay with SK-MEL-2, > 100 µM (inactive). Moreover, the GI50 in the assay on HCT-15 is 11.4 µM; in the assay with IGROV-1, > 100 µM (inactive).
Consider `Cc1cc(O)c2c(c1)C(=O)C=C(Br)C2=O`, for which the GI50 with T47D was 5.68 µM (inactive); in the assay on PC-3, 17.8 µM (inactive); in the assay on MOLT-4, 0.52 µM (active); in the assay on NCI-H522, 2.94 µM (inactive); in the assay on 786-0, 17.5 µM (inactive); in the assay on KM12, 27.2 µM (inactive). The GI50 in the assay with UACC-257 is 13.1 µM (inactive); in the assay with SF-268 it was 30.5 µM (inactive); with A498, 18.9 µM (inactive); in the assay with NCI-H226, 19.2 µM (inactive); in the assay on SK-MEL-5 it was 14.4 µM (inactive); in the assay with HCT-116, 16.6 µM (inactive). Besides, the GI50 was 15.6 µM (inactive) in the assay with ACHN; 16.7 µM (inactive) in the assay with OVCAR-3; 7.69 µM (inactive) in the assay on Malme-3M; 21.1 µM (inactive) in the assay with HT-29; 11.8 µM (inactive) in the assay on OVCAR-4; 17.1 µM (inactive) in the assay with SK-MEL-2. Further, the values for the GI50 in the assay on HCT-15 and with IGROV-1 were 10.2 µM and > 43.7 µM (inactive), respectively.
For the compound `CCC(=O)COc1ccc(NC(NC(=O)C(C(F)(F)F)C(F)(F)F)(C(F)(F)F)C(F)(F)F)cc1`, the GI50 in the assay with T47D is 20.6 µM (inactive); in the assay on PC-3, 48.1 µM (inactive); with MOLT-4, 14.3 µM (inactive); in the assay on NCI-H522 it was 18.4 µM (inactive); in the assay with 786-0, 23.1 µM (inactive); in the assay with KM12, 36.2 µM (inactive). For the same compound, the GI50 is 53.7 µM (inactive) with UACC-257; 27.9 µM (inactive) in the assay on SF-268; 60.4 µM (inactive) in the assay with A498; 19.2 µM (inactive) in the assay with NCI-H226; 42.3 µM (inactive) with SK-MEL-5; 20.6 µM (inactive) with HCT-116. The GI50 is 33.5 µM (inactive) in the assay on ACHN; 94 µM (inactive) in the assay on OVCAR-3; 27 µM (inactive) in the assay on Malme-3M; 22.7 µM (inactive) in the assay on HT-29; 35.6 µM (inactive) with OVCAR-4; 30.3 µM (inactive) in the assay with SK-MEL-2. Further, the GI50 with HCT-15 is 27.5 µM; in the assay with IGROV-1, 19.4 µM (inactive).
For `COC(=O)c1ccc(NCC2=CC(=O)C=CC2=O)cc1O`, the GI50 in the assay on T47D was 8.43 µM (inactive); in the assay with PC-3, 31.8 µM (inactive); in the assay on MOLT-4 it was 8.87 µM (inactive); with NCI-H522, 2.11 µM (inactive); in the assay with 786-0, 15.7 µM (inactive); with UACC-257 it was 16.2 µM (inactive). Moreover, the GI50 with SF-268 is 28.9 µM (inactive); with A498 it was 17.2 µM (inactive); with NCI-H226, 19.5 µM (inactive); with SK-MEL-5 it was 24.4 µM (inactive); with HCT-116, 17.2 µM (inactive); in the assay with ACHN, 13.8 µM (inactive). The GI50 with OVCAR-3 was 11.5 µM (inactive); with Malme-3M it was 10.6 µM (inactive); in the assay on HT-29 it was 19.6 µM (inactive); in the assay with OVCAR-4, 16.6 µM (inactive); with SK-MEL-2 it was 44.2 µM (inactive); in the assay on HCT-15, 16.5 µM. For the same compound, the GI50 in the assay on IGROV-1 is 17.3 µM (inactive).
Regarding `CCOC(=O)/C=C/CCO[Si](C)(C)C(C)(C)C`, the GI50 in the assay with T47D, in the assay on PC-3, with MOLT-4, in the assay with NCI-H522, with 786-0 and in the assay with KM12 was > 100 µM (inactive) each time. The GI50 with UACC-257, in the assay with SF-268, in the assay on A498, in the assay on NCI-H226, in the assay on SK-MEL-5 and in the assay with HCT-116 was > 100 µM (inactive) each time. Also, the GI50 in the assay on ACHN, in the assay with OVCAR-3, in the assay on Malme-3M, in the assay on HT-29, in the assay with OVCAR-4 and in the assay on SK-MEL-2 was > 100 µM (inactive) in each case. Besides, the GI50 in the assay on HCT-15 was greater than 100 µM; in the assay with IGROV-1, > 100 µM (inactive).
As to `Cc1csc2nc(-c3cccc([N+](=O)[O-])c3)c(/C=N/N=C(N)N)n12`, the GI50 with T47D was 1.87 µM (inactive); in the assay with PC-3, 1.63 µM (inactive); in the assay on NCI-H522 it was 1.83 µM (inactive); in the assay with 786-0 it was 1.57 µM (inactive); in the assay on KM12 it was 1.68 µM (inactive); with UACC-257 it was 1.78 µM (inactive). The GI50 with SF-268 is 1.82 µM (inactive); in the assay on A498, 0.933 µM (active); with NCI-H226, 1.64 µM (inactive); with SK-MEL-5, 1.55 µM (inactive); in the assay with HCT-116 it was 1.7 µM (inactive); with ACHN, 1.8 µM (inactive). The GI50 with OVCAR-3 was 1.62 µM (inactive); with Malme-3M, 1.72 µM (inactive); in the assay with HT-29, 1.81 µM (inactive); in the assay on OVCAR-4 it was 1.78 µM (inactive); in the assay on SK-MEL-2, 1.77 µM (inactive); in the assay with HCT-15 it was 1.71 µM. Moreover, the GI50 in the assay on IGROV-1 is 1.81 µM (inactive).
As to `CC(C)=C/C=C1/CS(=O)(=O)C=C1C`, the GI50 with T47D, in the assay on PC-3, with MOLT-4, with NCI-H522, with 786-0 and with KM12 was > 100 µM (inactive) in each case. The GI50 in the assay with UACC-257, in the assay with A498, in the assay on NCI-H226, in the assay on SK-MEL-5, in the assay with HCT-116 and with ACHN was > 100 µM (inactive) in each case. The GI50 is > 100 µM (inactive) in the assay with OVCAR-3; > 100 µM (inactive) in the assay with Malme-3M; > 100 µM (inactive) with HT-29; > 100 µM (inactive) in the assay on SK-MEL-2; 47.4 µM with HCT-15; > 100 µM (inactive) with IGROV-1.
As for `O=C1c2ccccc2-c2nnc3c(c21)Cc1ccccc1C3`, the GI50 in the assay with T47D is > 10 µM (inactive); with PC-3 it was 9.53 µM (inactive); in the assay on MOLT-4, > 10 µM (inactive); with NCI-H522 it was > 10 µM (inactive); in the assay with 786-0 it was > 10 µM (inactive); with KM12 it was > 10 µM (inactive). Moreover, the GI50 in the assay with SF-268, in the assay on A498, in the assay on NCI-H226, in the assay with SK-MEL-5, in the assay with HCT-116 and in the assay with ACHN was > 10 µM (inactive) in each case. For the same compound, the GI50 in the assay with OVCAR-3 is > 10 µM (inactive); with Malme-3M, > 10 µM (inactive); with HT-29, > 10 µM (inactive); in the assay with OVCAR-4 it was > 10 µM (inactive); in the assay with SK-MEL-2, > 10 µM (inactive); in the assay on HCT-15 it was greater than 10 µM. In addition, in the assay on IGROV-1, the GI50 was > 10 µM (inactive).
For `COC(=O)/C(=C(\C)NC(C)=O)c1c(C(=O)OC)[nH]c2ccccc12`, the GI50 in the assay with T47D is > 100 µM (inactive); with PC-3 it was > 100 µM (inactive); in the assay with MOLT-4 it was > 100 µM (inactive); in the assay on NCI-H522 it was 95.3 µM (inactive); with 786-0, > 100 µM (inactive); in the assay with KM12 it was > 100 µM (inactive). Further, the GI50 with UACC-257, in the assay on SF-268, in the assay on A498, with NCI-H226, in the assay with SK-MEL-5 and in the assay with HCT-116 was > 100 µM (inactive) in each case. In addition, the GI50 in the assay on ACHN, in the assay on OVCAR-3, with Malme-3M, with HT-29, with OVCAR-4 and in the assay on SK-MEL-2 was > 100 µM (inactive) throughout. The results for the GI50 in the assay on HCT-15 and in the assay with IGROV-1 were greater than 100 µM and > 100 µM (inactive), respectively.
For the compound `COC(=O)[C@]1(c2cc3ccccc3[nH]2)CC2CN(CC(=O)N(C)OC)C1CC2(OC)OC` (some centres undefined), the GI50 in the assay with T47D was 22 µM (inactive); in the assay on PC-3, 24.2 µM (inactive); in the assay on NCI-H522 it was 15.9 µM (inactive); in the assay with 786-0, 22.2 µM (inactive); with KM12 it was 31.6 µM (inactive); with UACC-257, 71.3 µM (inactive). In addition, the GI50 was 67.6 µM (inactive) in the assay with SF-268; 39.1 µM (inactive) in the assay on A498; 34.4 µM (inactive) with NCI-H226; 40.6 µM (inactive) in the assay on SK-MEL-5; 26.9 µM (inactive) with HCT-116; 35.1 µM (inactive) with ACHN. The GI50 is 50.6 µM (inactive) in the assay with OVCAR-3; 24.3 µM (inactive) in the assay with Malme-3M; 35.2 µM (inactive) in the assay on HT-29; 57.1 µM (inactive) with OVCAR-4; 39 µM (inactive) in the assay with SK-MEL-2; 28.2 µM in the assay on HCT-15. In addition, the GI50 with IGROV-1 was 48.3 µM (inactive).
